Consider six compounds from PubChem BioAssay AID2060495 (Molecular Pharmacology Branch, DTP, NCI, 2025).

Usually viability, T/C stands for the result in the treated group divided by that in the control group, in per cent. As usually defined, the IC50 is the concentration at which inhibition is half-maximal.

The subject of this test is 521955-158-R2-J5-PDC complex spheroid viability. Nature of the test: Anticancer human tumor 521955-158-R2-J5-PDC patient-derived pancreatic carcinoma cell line growth inhibition [GQUAD]. The conditions noted are these: for viability, T/C: stronger effect = lower value. The source says: DNA G-quadruplex Stabilizer Agents in Combinations in Complex Spheroids
A high-throughput screen of multi-cell type tumor spheroids was designed to identify active combinations of DNA G-quadruplex stabilizer agents and targeted small molecules. Complex spheroids include a stromal component modeled by human endothelial cells (HUVEC) and fibroblasts modeled by human mesenchymal stem cells (MSCs). The concentration ranges selected for each drug and investigational agent were based upon clinically achievable concentrations if the clinical Cmax of the agent was known.
Compounds. The drugs and investigational agents: pidnarulex (CX-5461; NSC782164), APTO-253 (NSC789042), BRACO-19 (NSC847499), peposertib (NSC802822), ceralasertib (NSC780249), elimusertib (NSC800525), camonsertib (NSC841442), AZD-1390 (NSC803789), olaparib (NSC753686), talazoparib (NSC767125), ART-558 (NSC835418), sotorasib (NSC818433), MRTX-1133 (NSC836407), SN-38 (NSC673596), topotecan (NSC609699), etoposide (NSC141540), doxorubicin (NSC123127), gemcitabine (NSC613327), 5-fluorouracil (NSC19893), paclitaxel (NSC125973), vemurafenib (NSC761431), panobinostat (NSC761190), R-306465 (JNJ-16241199; NSC773264), adavosertib (NSC754352), TP-3654 (NSC805149), carboplatin (NSC241240), KSQ-4279 (NSC840948), and staurosporine (NSC755774) were obtained from the National Cancer Institute (NCI) Developmental Therapeutics Program Chemical Repository (34). The FDA-approved anticancer drug set is available from the NCI Developmental Therapeutics Program. […] The stock solutions were prepared in dimethyl sulfoxide (DMSO, Sigma-Aldrich, St. Louis, MO, cat. D2650) at 800-fold the tested concentration and stored at -70 degrees C prior to their use. All drugs and investigational agents were tested over a range starting from a high concentration at or near the clinical Cmax and decreasing in half-log increments. If the clinical Cmax for an agent had not been determined, the highest concentration tested was 10 microM.
2.3 Cell Culture. All cells were maintained in an incubator at 37 degrees C and 5% CO2 with 95% humidity. The PDC lines were cultured according to standard operating procedures established by the NCI PDMR. All PDCs were thawed and cultured in Matrigel-coated flasks prepared with a working solution of 1X Ham's F-12 nutrient mix, without supplementation (Invitrogen, cat. 11765054), 100 U/mL penicillin-streptomycin (Invitrogen, cat. 15140122), and 2.5% Matrigel (Corning Inc., cat. 354248) for the first three passages. The 857933-349-R-J2-PDC line was cultured in 6C/Colon 1B media, which includes advanced DMEM/F-12 (Thermo Fisher Scientific, cat. 12634028), 10 mM HEPES (Thermo Fisher Scientific, cat. 15630080), 1X GlutaMAX supplement (Thermo Fisher Scientific, cat. 35050061), 0.1 mg/mL primocin (InvivoGen, cat. ant-pm-2), 10% defined fetal bovine serum, heat inactivated (HyClone Laboratories Inc., cat. SH30070.03HI), 50% L-WRN conditioned media (ATCC, cat. CRL-3276), 1.25 mM N-Acetyl-L-cysteine (Sigma-Aldrich, cat. A9165), 10 mM nicotinamide (Sigma-Aldrich, cat. N0636), 1X B-27 supplement (Thermo Fisher Scientific, cat. 17504044), 1X N-2 supplement (Thermo Fisher Scientific, cat. 17502048), 10 microM Y-27632 dihydrochloride (Tocris Bioscience, cat. 1254), and 50 ng/mL human EGF recombinant protein (Thermo Fisher Scientific, cat. PHG0311). The 485176-168-R4-J1-PDC line was cultured in Panc media, which includes all 6C/Colon 1B media components plus 100 ng/mL human FGF-10 (Thermo Fisher Scientific, cat. 100-26), 500 nM SB-431542 (Selleckchem, cat. S1067), and gastrin (Tocris, cat. 3006).
[…]

Values joined by “and” are separate entries in the source; they are usually repeats but may differ in a detail not shown here. Equal values may be shown once.
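Also: spheroids exposed to agents for one week before reading.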

For `CC[C@@]1(O)C(=O)OCc2c1cc1n(c2=O)Cc2cc3c(CN(C)C)c(O)ccc3nc2-1`, the viability, T/C is, setting by setting: (compound 0.000999 µM) 109% and 110% and 79.9%; (compound 0.00316 µM) 84.8% and 101% and 96.6%; (compound 0.00999 µM) 96.3% and 112% and 92.2%; (compound 0.0316 µM) 86.6% and 79.7% and 91.3%; (compound 0.0999 µM) 30.5% and 50.2% and 38%; (compound 0.316 µM) 8.07% and 27.5% and 13.2%. In addition, the IC50 (curve of compound) is 66.9 nM and 93.2 nM and 76.6 nM.
`COc1ccc([C@@H](O)c2cc(-c3ncnc4cc(N5CCOCC5)ccc34)c(F)cc2Cl)nn1`: the viability, T/C is, setting by setting: (compound 0.0316 µM) 88.1% and 109% and 104%; (compound 0.1 µM) 87% and 96.8% and 88.3%; (compound 0.316 µM) 83.3% and 97% and 86.6%; (compound 1 µM) 63.6% and 77.3% and 58.9%; (compound 3.16 µM) 50.2% and 64.8% and 50.8%; (compound 10 µM) 38% and 42.1% and 40.9%. For the same compound, the concentration for half-maximal inhibition (IC50) (curve of compound) was 2810 nM and 6670 nM and 2890 nM.
With `CCCS(=O)(=O)Nc1ccc(F)c(C(=O)c2c[nH]c3ncc(-c4ccc(Cl)cc4)cc23)c1F`, the viability, T/C (compound 0.0316 µM) is 112% and 121% and 109%; the viability, T/C (compound 0.1 µM) is 83.8% and 96.3% and 95%; the viability, T/C (compound 0.316 µM) is 73.2% and 96.7% and 148%; the viability, T/C (compound 1 µM) was 102% and 108% and 152%; the viability, T/C (compound 3.16 µM) is 217% and 247% and 153%; the viability, T/C (compound 10 µM) was 92.2% and 112% and 62.1%. The IC50 (curve of compound) was above 10000 nM.
Regarding `COc1cc(C2c3cc4c(cc3C(OC3OC5COC(C)OC5C(O)C3O)C3COC(=O)C23)OCO4)cc(OC)c1O` (configuration not stated), the viability, T/C is, setting by setting: (compound 0.0316 µM) 95.5% and 105% and 91.1%; (compound 0.1 µM) 66.3% and 70.6% and 95%; (compound 0.316 µM) 79.4% and 67% and 81.2%; (compound 1 µM) 29% and 29.6% and 53.9%; (compound 3.16 µM) 14.7% and 15.7% and 30.7%; (compound 10 µM) 10.9% and 9.42% and 17.9%. The IC50 (curve of compound) was 616 nM and 427 nM and 1250 nM.
For the compound `CC1COCCN1c1cc(-c2ccnn2C)c2ccnc(-c3ccn[nH]3)c2n1` (configuration not stated), the viability, T/C is, setting by setting: (compound 0.0316 µM) 86% and 82.9% and 82.7%; (compound 0.1 µM) 13.9% and 30.4% and 13.4%; (compound 0.316 µM) 10.9% and 17.4% and 9.83%; (compound 1 µM) 13.5% and 21.3% and 12.2%; (compound 3.16 µM) 16.9% and 33.8% and 15.8%; (compound 10 µM) 19.7% and 38.7% and 26.2%. The IC50 (curve of compound) was 56.7 nM and 64.6 nM and 55.3 nM.
As to `COc1cc(C2c3cc4c(cc3C(OC3OC5COC(C)OC5C(O)C3O)C3COC(=O)C23)OCO4)cc(OC)c1O` (configuration not stated) + Cc1[nH]c2ccc(F)cc2c1-c1nc2c3cccnc3c3ncccc3c2[nH]1, the IC50 worked out at 645 nM (curve of first compound, second compound 0.0316 µM); 576 nM (curve of first compound, second compound 0.1 µM); 661 nM (curve of first compound, second compound 0.316 µM); 628 nM (curve of first compound, second compound 1 µM); 653 nM (curve of first compound, second compound 3.16 µM); 556 nM (curve of first compound, second compound 10 µM). The viability, T/C (second compound 0.0316 µM, first compound 0.0316 µM) is 99.5%; the viability, T/C (second compound 0.0316 µM, first compound 0.1 µM) was 72.6%; the viability, T/C (second compound 0.0316 µM, first compound 0.316 µM) was 73%; the viability, T/C (second compound 0.0316 µM, first compound 1 µM) is 41%; the viability, T/C (second compound 0.0316 µM, first compound 3.16 µM) was 14%; the viability, T/C (second compound 0.0316 µM, first compound 10 µM) was 9.66%. Further, the viability, T/C was 81% (second compound 0.1 µM, first compound 0.0316 µM); 102% (second compound 0.1 µM, first compound 0.1 µM); 70.6% (second compound 0.1 µM, first compound 0.316 µM); 29.8% (second compound 0.1 µM, first compound 1 µM); 15.1% (second compound 0.1 µM, first compound 3.16 µM); 10.7% (second compound 0.1 µM, first compound 10 µM). The viability, T/C is 104% (second compound 0.316 µM, first compound 0.0316 µM); 94.9% (second compound 0.316 µM, first compound 0.1 µM); 76.3% (second compound 0.316 µM, first compound 0.316 µM); 34% (second compound 0.316 µM, first compound 1 µM); 18.7% (second compound 0.316 µM, first compound 3.16 µM); 7.53% (second compound 0.316 µM, first compound 10 µM). The viability, T/C (second compound 1 µM, first compound 0.0316 µM) was 84.2%; the viability, T/C (second compound 1 µM, first compound 0.1 µM) was 114%; the viability, T/C (second compound 1 µM, first compound 0.316 µM) was 82.2%; the viability, T/C (second compound 1 µM, first compound 1 µM) was 27.6%; the viability, T/C (second compound 1 µM, first compound 3.16 µM) was 15.4%; the viability, T/C (second compound 1 µM, first compound 10 µM) was 9.36%. Further, the viability, T/C by setting is: (second compound 3.16 µM, first compound 0.0316 µM) 74.8%; (second compound 3.16 µM, first compound 0.1 µM) 100%; (second compound 3.16 µM, first compound 0.316 µM) 73.1%; (second compound 3.16 µM, first compound 1 µM) 35.6%; (second compound 3.16 µM, first compound 3.16 µM) 14.7%; (second compound 3.16 µM, first compound 10 µM) 11.6%. Besides, the viability, T/C is, setting by setting: (second compound 10 µM, first compound 0.0316 µM) 96.3%; (second compound 10 µM, first compound 0.1 µM) 94%; (second compound 10 µM, first compound 0.316 µM) 66.8%; (second compound 10 µM, first compound 1 µM) 31.9%; (second compound 10 µM, first compound 3.16 µM) 17.1%; (second compound 10 µM, first compound 10 µM) 12.4%.
